Values of other authors in patent US20070028930A1, “Active agent and formulations to minimize or alleviate bladder urgency and irritation and/or to enhance sexual function” (Delithe Natural Products Inc., priority 2005, published 2007).

Tested on: bladder
Conditions: 10 mg/kg dose, rats

CNCC[C@H](Oc1cccc2ccccc12)c1cccs1 [Duloxetine]
efficacy in in vivo bladder studies: effective
